Calls of active or inactive are those of the source.
Columns and labels:
[1] = microbe, parasite or virus in culture; type: functional; conditions: Mycobacterium tuberculosis
[2] = growth suppression of beta-catenin-knockout colon cells, dose response, cell-based, HCT116, human colon tumor (AID 1045); type: functional;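 note: HCT116 colon tumor cells with beta catenin knocked out; cells exposed to compound for 60 hours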
[3] = molecular target: T1, Melanocortin receptor 4 (Homo sapiens, UniProt P32245); type: functional, cell-based;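 note: Cell-based assay with luminescence read-out, confirmatory dose-response testing for agonist activity of biased ligands at MC4R; human U2OS cells with tagged receptor and beta-arrestin; potency of agonists that increase receptor coupling to beta-arrestin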
[4] = inhibitors of SNCA 5'UTR-driven reporter translation, confirmation, H4 neuroglioma cells, luminescence (AID 1988); type: functional, cell-based
[5] = Luminescence Cell-Based Dose Response HTS to Identify Inhibitors of 5'UTR Stem-Loop Driven Prion Protein mRNA Translation in H4 Neuroglioblastoma Cells. [Related pubchem assays: 1827 (Project Summary), 1813 (Primary HTS)]; type: functional
[6] = cytotoxicity toward NIH3T3 fibroblasts, dose response, counter-screen, cell-based, ATP luminescence, mouse fibroblasts (AID 2010); type: functional;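 note: cells exposed to compound for about 90 hours before reading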
[7] = molecular target: Beta-galactosidase (Escherichia coli, UniProt Q8VNN2); experiment: PubChem AID 485352; type: functional
[8] = molecular target: T2, Ubiquitin-conjugating enzyme E2 N (Homo sapiens, UniProt P61088); type: functional;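 note: Dose-response confirmation in a TR-FRET assay detecting UBC13-driven polyubiquitin chain formation, inhibition measured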
T2 sequence (P61088 whole entry): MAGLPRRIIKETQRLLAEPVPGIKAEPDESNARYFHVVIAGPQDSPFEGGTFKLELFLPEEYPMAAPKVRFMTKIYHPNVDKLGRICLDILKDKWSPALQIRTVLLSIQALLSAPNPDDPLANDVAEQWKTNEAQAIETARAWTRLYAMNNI

[9] = growth suppression of PTEN-null colon cells, dose response, cell-based, HCT116 PTEN knockout (AID 1047); type: functional;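 note: HCT116 colon tumor cells with PTEN knocked out; cells exposed to compound for 60 hours before readout; potency for loss of cell viability measured by luminescence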
[10] = molecular target: T3, Type-1 angiotensin II receptor (Homo sapiens, UniProt P30556); experiment: AT1 receptor antagonists, dose response, selectivity assay for APJ receptor antagonist project, cell-based, uHTS hits (AID 463214); type: functional;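 note: antagonist potency against angiotensin II stimulated AT1 response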
T3 sequence (P30556 whole entry): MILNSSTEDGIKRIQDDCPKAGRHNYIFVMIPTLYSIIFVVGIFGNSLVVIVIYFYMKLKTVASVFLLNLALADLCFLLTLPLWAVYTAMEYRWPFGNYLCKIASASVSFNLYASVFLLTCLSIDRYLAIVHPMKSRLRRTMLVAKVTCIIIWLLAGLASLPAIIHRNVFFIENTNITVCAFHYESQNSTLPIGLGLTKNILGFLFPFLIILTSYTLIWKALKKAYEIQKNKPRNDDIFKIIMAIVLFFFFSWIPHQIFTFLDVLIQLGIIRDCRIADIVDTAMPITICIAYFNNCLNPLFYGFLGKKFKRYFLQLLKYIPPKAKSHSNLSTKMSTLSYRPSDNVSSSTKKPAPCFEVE

[11] = inhibitors of intracellular T. cruzi replication, confirmation, NIH3T3 host cells, beta-gal luminescence (AID 2044); type: functional, cell-based;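 note: intracellular parasites grown in NIH/3T3 mouse fibroblasts as host cells; luminescent beta-galactosidase reporter signal from transgenic T. cruzi replicating inside host cells; inhibitors lower the luminescence signal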
[12] = C. albicans growth with fluconazole, confirmation, fluorescence, retest (AID 2467); type: functional, cell-based
[13] = NIH-3T3 fibroblast cytotoxicity, dose response, cytotoxicity control, cell-based, fluorescence, Alamar Blue, secondary assay (AID 2327); type: functional;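 note: NIH-3T3 mouse fibroblasts cultured with fluconazole at 8 µg/mL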
[14] = tested on: HEK293; experiment: cells; type: functional, cell-based; conditions: Homo sapiens
[15] = molecular target: T4, Nuclear receptor subfamily 0 group B member 1 (Homo sapiens, UniProt P51843); experiment: Luminescence-based cell-based high throughput dose response assay for inhibitors of the orphan nuclear receptor subfamily 0, group B, member 1 (DAX1; NR0B1). [Related pubchem assays (depositor defined):AID504766, AID504790]; type: functional
T4 sequence (P51843 whole entry): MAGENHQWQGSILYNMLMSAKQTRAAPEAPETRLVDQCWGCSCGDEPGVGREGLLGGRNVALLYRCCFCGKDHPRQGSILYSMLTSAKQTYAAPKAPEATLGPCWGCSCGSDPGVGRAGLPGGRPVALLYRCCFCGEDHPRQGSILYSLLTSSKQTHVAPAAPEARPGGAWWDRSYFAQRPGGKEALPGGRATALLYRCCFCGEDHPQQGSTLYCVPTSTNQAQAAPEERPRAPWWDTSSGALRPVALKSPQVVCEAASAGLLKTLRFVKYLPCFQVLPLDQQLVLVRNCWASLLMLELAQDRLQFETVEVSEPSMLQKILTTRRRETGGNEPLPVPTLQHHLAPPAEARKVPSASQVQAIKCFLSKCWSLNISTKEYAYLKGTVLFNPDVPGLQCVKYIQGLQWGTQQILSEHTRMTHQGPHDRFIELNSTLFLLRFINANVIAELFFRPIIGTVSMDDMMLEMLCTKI

[16] = molecular target: T5, Sentrin-specific protease 8 (Homo sapiens, UniProt Q96LD8); experiment: SENP8 protease inhibitors, SAR follow-up, biochemical, luminescence (AID 504501); type: functional
T5 sequence (Q96LD8 whole entry): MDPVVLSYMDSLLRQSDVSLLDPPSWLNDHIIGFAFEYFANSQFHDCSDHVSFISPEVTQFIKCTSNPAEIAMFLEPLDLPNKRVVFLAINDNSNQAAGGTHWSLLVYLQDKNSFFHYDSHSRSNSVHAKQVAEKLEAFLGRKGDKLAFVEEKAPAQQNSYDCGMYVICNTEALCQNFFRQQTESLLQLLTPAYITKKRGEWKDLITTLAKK

[17] = molecular target: T6, Sentrin-specific protease 6 (Homo sapiens, UniProt Q9GZR1); experiment: SAR Analysis of small molecule inhibitors of Sentrin-specific protease 6 (SENP6) using a Luminescent assay. [Related pubchem assays (depositor defined):AID2582, AID2599]; type: functional
T6 sequence (Q9GZR1 whole entry): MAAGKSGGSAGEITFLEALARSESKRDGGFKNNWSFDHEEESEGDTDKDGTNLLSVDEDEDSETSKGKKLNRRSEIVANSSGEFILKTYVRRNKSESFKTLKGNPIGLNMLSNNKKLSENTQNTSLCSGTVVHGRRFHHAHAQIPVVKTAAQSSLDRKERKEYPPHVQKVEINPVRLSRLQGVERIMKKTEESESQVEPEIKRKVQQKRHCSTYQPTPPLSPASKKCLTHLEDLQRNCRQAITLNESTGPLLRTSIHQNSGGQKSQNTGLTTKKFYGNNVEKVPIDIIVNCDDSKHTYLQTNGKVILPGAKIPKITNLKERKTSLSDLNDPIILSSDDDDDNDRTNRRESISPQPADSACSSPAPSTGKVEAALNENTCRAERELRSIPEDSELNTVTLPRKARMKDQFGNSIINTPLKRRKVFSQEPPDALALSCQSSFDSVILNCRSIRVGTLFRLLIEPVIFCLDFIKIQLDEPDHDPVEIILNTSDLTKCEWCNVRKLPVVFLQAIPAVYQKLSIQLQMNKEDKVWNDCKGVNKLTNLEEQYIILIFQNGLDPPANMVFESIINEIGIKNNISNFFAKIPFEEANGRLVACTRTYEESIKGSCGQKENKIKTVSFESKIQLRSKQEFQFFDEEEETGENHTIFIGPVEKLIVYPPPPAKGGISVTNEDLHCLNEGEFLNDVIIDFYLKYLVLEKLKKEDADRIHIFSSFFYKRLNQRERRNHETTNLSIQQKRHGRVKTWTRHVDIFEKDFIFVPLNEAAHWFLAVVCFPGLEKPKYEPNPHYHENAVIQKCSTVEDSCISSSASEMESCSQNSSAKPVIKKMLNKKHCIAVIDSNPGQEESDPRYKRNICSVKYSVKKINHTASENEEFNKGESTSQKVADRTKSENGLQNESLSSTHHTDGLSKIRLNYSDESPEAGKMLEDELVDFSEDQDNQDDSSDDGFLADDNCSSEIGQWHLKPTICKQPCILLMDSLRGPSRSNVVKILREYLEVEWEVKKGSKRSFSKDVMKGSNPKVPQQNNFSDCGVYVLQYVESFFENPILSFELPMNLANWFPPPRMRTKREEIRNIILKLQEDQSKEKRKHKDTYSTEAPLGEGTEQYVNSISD

[18] = molecular target: T7, Sentrin-specific protease 7 (Homo sapiens, UniProt Q9BQF6); experiment: SENP7 protease inhibitors, SAR follow-up, biochemical, luminescence (AID 504497); type: functional
T7 sequence (Q9BQF6 whole entry): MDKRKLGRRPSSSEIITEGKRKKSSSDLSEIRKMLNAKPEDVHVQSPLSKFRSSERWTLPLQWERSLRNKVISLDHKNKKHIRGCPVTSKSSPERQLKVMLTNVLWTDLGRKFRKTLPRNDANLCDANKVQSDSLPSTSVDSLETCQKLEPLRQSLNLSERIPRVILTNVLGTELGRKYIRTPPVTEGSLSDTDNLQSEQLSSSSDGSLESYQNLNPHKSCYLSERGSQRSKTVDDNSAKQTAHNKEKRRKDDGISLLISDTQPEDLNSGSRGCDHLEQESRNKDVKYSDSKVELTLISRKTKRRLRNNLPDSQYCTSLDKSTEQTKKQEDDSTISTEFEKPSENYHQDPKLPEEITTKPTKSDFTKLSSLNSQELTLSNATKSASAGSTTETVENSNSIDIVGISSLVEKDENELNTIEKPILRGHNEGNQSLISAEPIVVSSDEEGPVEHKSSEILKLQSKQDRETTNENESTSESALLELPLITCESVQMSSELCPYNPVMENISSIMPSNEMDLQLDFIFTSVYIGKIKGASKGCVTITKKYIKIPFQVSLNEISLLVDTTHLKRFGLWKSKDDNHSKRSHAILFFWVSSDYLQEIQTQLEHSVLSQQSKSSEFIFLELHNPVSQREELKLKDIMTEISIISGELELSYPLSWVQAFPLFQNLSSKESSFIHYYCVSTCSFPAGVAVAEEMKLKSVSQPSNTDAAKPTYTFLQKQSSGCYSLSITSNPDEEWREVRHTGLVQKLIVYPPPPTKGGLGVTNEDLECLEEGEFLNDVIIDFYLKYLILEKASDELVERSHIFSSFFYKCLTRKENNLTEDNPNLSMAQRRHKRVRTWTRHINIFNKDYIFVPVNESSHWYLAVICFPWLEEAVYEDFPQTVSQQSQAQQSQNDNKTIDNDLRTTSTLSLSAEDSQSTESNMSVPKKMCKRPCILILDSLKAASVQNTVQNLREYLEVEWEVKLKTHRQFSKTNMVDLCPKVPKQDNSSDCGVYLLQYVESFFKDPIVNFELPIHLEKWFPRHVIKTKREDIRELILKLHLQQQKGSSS

[19] = molecular target: T8, Caspase-3 (Homo sapiens, UniProt P42574); experiment: SAR Analysis of small molecule inhibitors of Sentrin-specific proteases (SENPs) using a Caspase-3 Selectivity assay. [Related pubchem assays (depositor defined):AID2540, AID2599, AID434973, AID489001]; type: functional
T8 sequence (P42574 whole entry): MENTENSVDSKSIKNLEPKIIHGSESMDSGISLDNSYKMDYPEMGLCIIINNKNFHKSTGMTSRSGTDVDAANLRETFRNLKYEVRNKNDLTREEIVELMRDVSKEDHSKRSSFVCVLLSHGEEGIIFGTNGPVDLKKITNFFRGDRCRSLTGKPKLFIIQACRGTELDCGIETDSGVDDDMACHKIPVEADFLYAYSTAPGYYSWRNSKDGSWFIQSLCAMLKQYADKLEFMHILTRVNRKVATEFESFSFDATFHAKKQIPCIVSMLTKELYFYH

[20] = nonselective inhibitors of cellular cAMP signaling, dose response, counter-screen for MC4R biased antagonist project, cell-based, TR-FRET cAMP detection (AID 602305); type: functional;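 note: U2OS cells stimulated with forskolin near its EC80 as the cAMP inducer; potency is for inhibition of forskolin-stimulated cAMP signaling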
[21] = molecular target: T1, Melanocortin receptor 4; experiment: MC4R antagonist potency on cAMP, dose response, cell-based, TR-FRET, biased antagonists (AID 602298); type: functional;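 note: antagonist potency against agonist-stimulated cAMP production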
[22] = HEp-2 cell cytotoxicity, dose response, cytotoxicity control for RSV inhibitor project, HTS (AID 2410); type: functional; conditions: human respiratory syncytial virus

T1 sequence (P32245 whole entry): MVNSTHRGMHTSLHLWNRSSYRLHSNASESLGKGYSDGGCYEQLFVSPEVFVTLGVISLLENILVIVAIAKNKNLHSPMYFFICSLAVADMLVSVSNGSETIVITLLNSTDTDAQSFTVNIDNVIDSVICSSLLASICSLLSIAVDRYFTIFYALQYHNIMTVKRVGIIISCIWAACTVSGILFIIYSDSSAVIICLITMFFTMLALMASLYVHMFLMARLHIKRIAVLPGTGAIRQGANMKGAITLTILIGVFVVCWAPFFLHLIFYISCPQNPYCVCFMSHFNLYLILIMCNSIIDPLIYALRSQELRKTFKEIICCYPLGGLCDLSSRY
Sequence of Beta-galactosidase (Q8VNN2 whole entry): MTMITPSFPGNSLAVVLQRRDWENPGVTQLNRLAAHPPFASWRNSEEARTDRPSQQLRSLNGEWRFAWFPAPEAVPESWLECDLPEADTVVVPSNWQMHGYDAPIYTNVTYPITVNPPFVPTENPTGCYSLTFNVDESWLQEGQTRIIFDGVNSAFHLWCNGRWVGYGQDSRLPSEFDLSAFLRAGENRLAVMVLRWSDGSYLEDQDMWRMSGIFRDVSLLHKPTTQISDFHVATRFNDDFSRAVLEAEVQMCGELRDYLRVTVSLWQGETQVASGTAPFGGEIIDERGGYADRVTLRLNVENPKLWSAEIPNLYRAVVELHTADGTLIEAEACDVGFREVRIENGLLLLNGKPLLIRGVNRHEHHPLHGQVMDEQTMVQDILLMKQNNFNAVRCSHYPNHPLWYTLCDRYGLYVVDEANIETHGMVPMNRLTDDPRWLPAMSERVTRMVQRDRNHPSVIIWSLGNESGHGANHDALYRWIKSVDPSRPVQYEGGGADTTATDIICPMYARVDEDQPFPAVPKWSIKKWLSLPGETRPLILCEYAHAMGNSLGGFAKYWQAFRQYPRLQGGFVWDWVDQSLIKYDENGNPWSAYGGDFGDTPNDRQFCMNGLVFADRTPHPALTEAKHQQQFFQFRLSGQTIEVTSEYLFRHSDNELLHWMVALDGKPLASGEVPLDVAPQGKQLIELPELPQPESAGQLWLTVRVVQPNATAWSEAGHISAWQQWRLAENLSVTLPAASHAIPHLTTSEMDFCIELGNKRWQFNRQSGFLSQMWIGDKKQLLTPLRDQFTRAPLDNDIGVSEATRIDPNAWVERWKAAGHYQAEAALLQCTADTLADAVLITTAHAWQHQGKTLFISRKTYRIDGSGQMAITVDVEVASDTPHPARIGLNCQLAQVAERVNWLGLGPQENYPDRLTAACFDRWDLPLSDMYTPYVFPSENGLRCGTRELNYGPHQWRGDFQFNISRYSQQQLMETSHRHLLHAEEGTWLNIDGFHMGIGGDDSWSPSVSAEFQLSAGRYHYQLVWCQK

CN(C)CCCNC(=O)c1ccc(-c2nc(-c3ccc(Cl)cc3)cs2)cc1
CC50 [1]: 4.08 µM (active)
EC50 [2]: 2.25 µM (active)
EC50 [3]: > 9.91 µM (active)
EC50 [4]: 9.67 µM (inconclusive)
EC50 [5]: > 120 µM (not active)
EC50 [6]: 10.2 µM (active)
EC50 [7]: > 40 µM (inactive)
IC50 [8]: > 20 µM (inactive)
EC50 [9]: 2.41 µM (active)
IC50 [10]: 22.6 µM (not active)
EC50 [11]: 0.738 µM (active)
EC50 [12]: 3.33 µM (active)
EC50 [13]: 44.4 µM (inconclusive)

NC(=O)CSc1nnc(-c2ccc(O)cc2)n1Cc1ccco1
IC50 [14]: > 67.6 µM (inactive)
IC50 [15]: > 67.6 µM (inactive)

O=C(Cc1ccccc1)NCC(=O)OCC(=O)c1ccc(Cl)c([N+](=O)[O-])c1
EC50 [7]: > 40 µM (inactive)
IC50 [10]: 9.37 µM (active)

Brc1ccc(-c2csc(N3CCOCC3)n2)cc1
IC50 [14]: > 67.5 µM (inactive)
IC50 [15]: > 67.5 µM (inactive)

Cc1cc(Cl)ccc1NC(=O)c1ccc2c(c1)OCO2
IC50 [16]: > 99 µM (inactive)
IC50 [17]: > 99 µM (inactive)
IC50 [18]: 34.6 µM (active)
IC50 [19]: 28.1 µM (active)

COc1ccccc1NC(=O)CCC(=O)OCC(=O)c1ccc(C)c([N+](=O)[O-])c1
EC50 [7]: > 40 µM (inactive)
IC50 [10]: 33.7 µM (not active)

COC(=O)c1ccc(C2c3[nH]c4ccccc4c3C[C@H]3C(=O)N(C4CCN(Cc5ccccc5)CC4)CC(=O)N23)cc1 (some centres undefined)
IC50 [20]: > 64.6 µM (inactive)
IC50 [21]: > 64.6 µM (inactive)

COc1ccc(-c2nc3ncccn3c2Br)cc1
IC50 [14]: > 67.6 µM (inactive)
IC50 [15]: > 67.6 µM (inactive)
CC50 [22]: 39.3 µM (active)

CC1CCCN(c2nc(-c3cccnc3)nc3scc(-c4ccccc4)c23)C1 (centres undefined)
IC50 [20]: > 64.6 µM (inactive)
IC50 [21]: > 64.6 µM (inactive)

Oc1nnc(/C=C/c2ccc(F)cc2)o1
IC50 [16]: > 99 µM (inactive)
IC50 [17]: > 99 µM (inactive)
IC50 [18]: > 99 µM (inactive)
IC50 [19]: > 99 µM (inactive)

O=C(c1ccccc1)c1cnc(-c2ccccc2)s1
IC50 [14]: > 67.6 µM (inactive)
IC50 [15]: > 67.6 µM (inactive)

CCCCCC1CCC(c2nnc(S)n2C)CC1 (centres undefined)
EC50 [6]: > 60 µM (not active)
EC50 [7]: > 40 µM (inactive)
IC50 [10]: > 40 µM (not active)
EC50 [11]: 1.92 µM (active)
EC50 [12]: > 38 µM (not active)
EC50 [13]: > 150 µM (inactive)

Reference: ChEMBL document CHEMBL1201862, “PubChem BioAssay data set” (2004)
